According to the NIST ThermoML archive (doi:10.1021/acs.jced.5b00428):
± gives the expanded uncertainty stated by the source.

Legend:
[1] = mn = molality of the nth substance listed, in mol/kg; details: 100 kPa, Liquid; for viscosity: Capillary tube (Ostwald / Ubbelohde) method; for mass density: Vibrating tube method
[2] = 101 kPa, Liquid, Capillary tube (Ostwald / Ubbelohde) method

CCCCn1cc[n+](C)c1.[Br-] [1-butyl-3-methylimidazolium bromide] + O
[1]
Details | mass density, m1 = 0.0046 [kg/m3] | mass density, m1 = 0.0141 [kg/m3] | mass density, m1 = 0.0231 [kg/m3] | viscosity, m1 = 0.0046 [mPa·s] | viscosity, m1 = 0.0141 [mPa·s] | viscosity, m1 = 0.0231 [mPa·s]
288.15 K | 999.318 ± 0.12 | 999.804 ± 0.12 | 1000.22 ± 0.12 | 1.14 ± 0.024 | 1.146 ± 0.024 | 1.148 ± 0.024
293.15 K | 998.492 ± 0.12 | 998.891 ± 0.12 | 999.304 ± 0.12 | 1.003 ± 0.021 | 1.008 ± 0.021 | 1.012 ± 0.021
298.15 K | 997.279 ± 0.12 | 997.685 ± 0.12 | 998.078 ± 0.12 | 0.891 ± 0.019 | 0.895 ± 0.019 | 0.897 ± 0.019
303.15 K | 995.876 ± 0.13 | 996.322 ± 0.12 | 996.69 ± 0.12 | 0.8 ± 0.017 | 0.8 ± 0.017 | 0.804 ± 0.017
308.15 K | 994.252 ± 0.13 | 994.678 ± 0.13 | 995.112 ± 0.12 | 0.721 ± 0.015 | 0.722 ± 0.015 | 0.725 ± 0.015
313.15 K | 992.415 ± 0.13 | 992.871 ± 0.12 | 993.178 ± 0.12 | 0.654 ± 0.014 | 0.656 ± 0.014 | 0.657 ± 0.014

O [water]
[2]
Details | viscosity [mPa·s]
288.15 K | 1.138 ± 0.024
293.15 K | 1.001 ± 0.021
298.15 K | 0.89 ± 0.019
303.15 K | 0.797 ± 0.017
308.15 K | 0.719 ± 0.015
313.15 K | 0.653 ± 0.014

O [water] + CCCCn1cc[n+](C)c1.[Br-]
[1], m2 = 0
Details | viscosity [mPa·s]
288.15 K | 1.138 ± 0.024
293.15 K | 1.001 ± 0.021
298.15 K | 0.89 ± 0.019
303.15 K | 0.797 ± 0.017
308.15 K | 0.719 ± 0.015
313.15 K | 0.653 ± 0.014
